Results reported in US9346798B2, “Dihydrobenzoxazine and tetrahydroquinoxaline sodium channel inhibitors” (AMGEN INC., priority 2012, dated 2016).
pIC50: −log10 of the molar value.

Tests used:
Assay type in all cases: cell-based
Nav 1.7 [1] = target: T1, Nav 1.7 (Homo sapiens (Human), UniProt Q15858); assay: Nav 1.7 in vitro assay, IonWorks Quattro (IWQ) population patch-clamp; settings: HEK 293 cells stably transfected with Nav 1.7; 26th pulse to -20 mV
Nav 1.7 [2] = target: T1, Nav 1.7; assay: Nav 1.7 in vitro PX assay, PatchXpress whole cell voltage clamp; settings: HEK 293 cells stably transfected with human Nav1.7; partially inactivated state (20 to 50% inactivation)
Method in brief: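 HEK293 cells stably expressing human Nav1.7, whole-cell voltage clamp at a holding potential giving 20–50% inactivation; currents elicited by 20 msec pulses to −10 mV at 0.1 Hz.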

Nav 1.5 = Nav 1.5 (Homo sapiens (Human), UniProt Q14524); assay: Nav 1.5 in vitro assay, IonWorks Quattro (IWQ) population patch-clamp; settings: HEK 293 cells stably transfected with Nav 1.5; 26th pulse to -20 mV
Nav 1.5, sequence (Q14524 whole entry): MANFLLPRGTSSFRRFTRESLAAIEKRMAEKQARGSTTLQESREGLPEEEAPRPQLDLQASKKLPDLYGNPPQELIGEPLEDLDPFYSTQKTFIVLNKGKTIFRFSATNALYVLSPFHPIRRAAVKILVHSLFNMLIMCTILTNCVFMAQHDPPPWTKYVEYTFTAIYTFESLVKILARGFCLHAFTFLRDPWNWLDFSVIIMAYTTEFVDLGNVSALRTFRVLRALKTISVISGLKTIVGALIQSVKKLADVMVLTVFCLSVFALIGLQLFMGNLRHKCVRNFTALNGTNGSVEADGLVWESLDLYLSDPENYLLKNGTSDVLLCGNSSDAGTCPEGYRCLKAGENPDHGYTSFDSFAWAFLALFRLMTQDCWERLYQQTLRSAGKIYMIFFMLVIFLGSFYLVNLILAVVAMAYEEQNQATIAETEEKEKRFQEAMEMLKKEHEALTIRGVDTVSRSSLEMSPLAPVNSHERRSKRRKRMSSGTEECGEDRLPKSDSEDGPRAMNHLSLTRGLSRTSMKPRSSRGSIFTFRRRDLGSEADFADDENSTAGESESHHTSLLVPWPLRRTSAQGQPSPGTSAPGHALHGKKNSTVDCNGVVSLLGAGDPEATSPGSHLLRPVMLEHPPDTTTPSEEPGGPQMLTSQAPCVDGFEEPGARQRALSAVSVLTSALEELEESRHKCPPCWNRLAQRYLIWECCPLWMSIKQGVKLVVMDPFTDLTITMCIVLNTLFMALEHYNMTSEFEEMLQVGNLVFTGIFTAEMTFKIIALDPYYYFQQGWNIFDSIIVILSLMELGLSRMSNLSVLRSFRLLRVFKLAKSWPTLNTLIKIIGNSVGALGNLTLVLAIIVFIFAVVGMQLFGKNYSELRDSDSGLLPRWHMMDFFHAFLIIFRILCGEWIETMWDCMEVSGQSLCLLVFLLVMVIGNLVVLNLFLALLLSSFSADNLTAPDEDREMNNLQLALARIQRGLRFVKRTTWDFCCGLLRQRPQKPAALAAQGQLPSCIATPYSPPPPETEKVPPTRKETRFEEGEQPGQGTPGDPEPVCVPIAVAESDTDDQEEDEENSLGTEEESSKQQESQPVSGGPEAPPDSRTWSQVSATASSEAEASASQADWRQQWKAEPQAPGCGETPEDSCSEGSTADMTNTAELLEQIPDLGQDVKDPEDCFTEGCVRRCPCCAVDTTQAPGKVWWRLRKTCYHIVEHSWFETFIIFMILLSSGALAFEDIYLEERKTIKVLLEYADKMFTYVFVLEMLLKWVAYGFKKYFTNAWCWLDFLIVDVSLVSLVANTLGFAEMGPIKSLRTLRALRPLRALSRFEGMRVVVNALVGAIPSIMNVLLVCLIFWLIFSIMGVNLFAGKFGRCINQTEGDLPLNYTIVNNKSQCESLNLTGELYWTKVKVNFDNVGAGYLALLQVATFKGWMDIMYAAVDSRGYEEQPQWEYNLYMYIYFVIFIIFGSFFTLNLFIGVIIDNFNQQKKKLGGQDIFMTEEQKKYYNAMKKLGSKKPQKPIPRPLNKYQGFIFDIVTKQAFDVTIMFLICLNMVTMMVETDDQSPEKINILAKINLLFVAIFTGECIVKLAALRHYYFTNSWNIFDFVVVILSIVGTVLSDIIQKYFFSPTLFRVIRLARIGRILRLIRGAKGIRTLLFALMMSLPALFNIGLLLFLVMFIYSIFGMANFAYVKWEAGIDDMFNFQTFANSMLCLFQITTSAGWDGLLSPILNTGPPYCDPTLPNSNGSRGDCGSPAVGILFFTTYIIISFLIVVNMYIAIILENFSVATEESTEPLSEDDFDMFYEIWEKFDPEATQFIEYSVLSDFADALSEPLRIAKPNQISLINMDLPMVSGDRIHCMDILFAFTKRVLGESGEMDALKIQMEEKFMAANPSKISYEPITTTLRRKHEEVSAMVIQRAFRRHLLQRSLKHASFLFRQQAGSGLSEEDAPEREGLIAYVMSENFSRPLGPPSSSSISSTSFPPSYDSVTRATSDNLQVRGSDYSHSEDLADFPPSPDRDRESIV

T1 sequence (Q15858 whole entry): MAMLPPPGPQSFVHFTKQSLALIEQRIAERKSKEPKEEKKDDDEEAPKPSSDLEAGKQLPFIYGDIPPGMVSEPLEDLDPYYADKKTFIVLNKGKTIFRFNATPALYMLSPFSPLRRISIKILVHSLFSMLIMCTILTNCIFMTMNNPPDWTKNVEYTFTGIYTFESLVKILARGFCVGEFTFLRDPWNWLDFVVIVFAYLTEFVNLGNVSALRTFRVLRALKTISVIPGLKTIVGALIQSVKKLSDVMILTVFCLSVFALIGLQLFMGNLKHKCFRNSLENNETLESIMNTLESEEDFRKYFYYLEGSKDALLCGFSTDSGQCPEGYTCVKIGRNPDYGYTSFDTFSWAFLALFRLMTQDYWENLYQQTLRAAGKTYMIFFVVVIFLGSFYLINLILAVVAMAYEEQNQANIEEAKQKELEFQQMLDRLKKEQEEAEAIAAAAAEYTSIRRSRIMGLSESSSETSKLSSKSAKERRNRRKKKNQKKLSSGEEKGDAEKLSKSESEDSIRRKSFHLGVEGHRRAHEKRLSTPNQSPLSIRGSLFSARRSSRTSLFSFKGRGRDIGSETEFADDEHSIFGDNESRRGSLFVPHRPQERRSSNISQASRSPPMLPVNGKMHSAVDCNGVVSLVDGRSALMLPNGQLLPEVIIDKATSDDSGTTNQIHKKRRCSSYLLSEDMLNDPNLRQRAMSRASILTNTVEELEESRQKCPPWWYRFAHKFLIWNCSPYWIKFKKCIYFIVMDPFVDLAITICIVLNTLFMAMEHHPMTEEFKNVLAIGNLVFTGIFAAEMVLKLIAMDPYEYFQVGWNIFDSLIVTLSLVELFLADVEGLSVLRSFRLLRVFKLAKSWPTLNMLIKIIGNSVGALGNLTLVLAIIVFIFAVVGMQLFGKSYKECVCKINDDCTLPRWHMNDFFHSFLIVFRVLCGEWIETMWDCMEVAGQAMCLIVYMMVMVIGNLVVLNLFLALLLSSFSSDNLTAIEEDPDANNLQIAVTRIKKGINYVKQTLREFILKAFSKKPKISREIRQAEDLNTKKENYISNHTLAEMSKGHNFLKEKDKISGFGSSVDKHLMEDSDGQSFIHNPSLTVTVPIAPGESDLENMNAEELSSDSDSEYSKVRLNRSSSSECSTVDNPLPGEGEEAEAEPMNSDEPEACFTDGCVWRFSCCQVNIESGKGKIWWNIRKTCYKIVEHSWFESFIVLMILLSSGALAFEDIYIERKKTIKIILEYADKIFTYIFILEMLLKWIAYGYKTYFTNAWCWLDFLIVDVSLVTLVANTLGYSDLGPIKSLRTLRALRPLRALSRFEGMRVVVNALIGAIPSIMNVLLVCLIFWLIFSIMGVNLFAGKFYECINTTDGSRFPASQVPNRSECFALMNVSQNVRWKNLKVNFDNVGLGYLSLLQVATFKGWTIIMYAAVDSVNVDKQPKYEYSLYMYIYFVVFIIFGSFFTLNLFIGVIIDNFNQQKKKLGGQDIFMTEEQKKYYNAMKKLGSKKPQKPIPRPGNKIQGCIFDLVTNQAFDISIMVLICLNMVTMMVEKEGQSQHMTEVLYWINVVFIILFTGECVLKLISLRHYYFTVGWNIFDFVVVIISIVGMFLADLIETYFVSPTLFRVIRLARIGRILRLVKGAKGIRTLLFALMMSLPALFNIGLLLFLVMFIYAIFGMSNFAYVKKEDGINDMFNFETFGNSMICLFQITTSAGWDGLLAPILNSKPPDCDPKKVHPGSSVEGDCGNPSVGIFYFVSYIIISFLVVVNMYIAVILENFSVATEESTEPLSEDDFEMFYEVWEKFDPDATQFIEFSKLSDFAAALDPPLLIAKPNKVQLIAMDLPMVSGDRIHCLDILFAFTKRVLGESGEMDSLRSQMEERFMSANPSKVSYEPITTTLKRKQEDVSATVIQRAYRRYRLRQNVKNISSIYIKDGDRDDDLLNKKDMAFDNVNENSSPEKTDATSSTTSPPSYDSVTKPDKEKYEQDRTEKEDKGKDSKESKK

SMILES	pIC50 (Nav 1.7 [1])	pIC50 (Nav 1.7 [2])	pIC50 (Nav 1.5)
O=S(=O)(Nc1nccs1)c1ccc2c(c1)OCCN2c1ccc(Cl)c(F)c1 [Example 155, 4-(4-Chloro-3-Fluorophenyl)-N-(Thiazol-2-Yl)-3,4-Dihydro-2H-Benzo[B][1,4]Oxazine-7-Sulfonamide 2,2,2-Trifluoroacetate]	5.63	4.90	< 5.00
O=S(=O)(Nc1cscn1)c1ccc2c(c1)OCCN2c1ccc(C(F)(F)F)cc1Cl [Example 11, 4-(2-Chloro-4-(Trifluoromethyl)Phenyl)-N-(Thiazol-4-Yl)-3,4-Dihydro-2H-Benzo[B][1,4]Oxazine-7-Sulfonamide]	5.49	4.90	< 5.00
O=S(=O)(Nc1cccnn1)c1ccc2c(c1)OCCN2c1ccc(C(F)(F)F)cc1Cl [Example 27, 4-(2-Chloro-4-(Trifluoromethyl)Phenyl)-N-(Pyridazin-3-Yl)-3,4-Dihydro-2H-Benzo[B][1,4]Oxazine-7-Sulfonamide]	5.90	4.97	< 5.00
O=S(=O)(Nc1ncns1)c1ccc2c(c1)OCCN2c1cccc2ncccc12 [Example 33, 4-(Quinolin-5-Yl)-N-(1,2,4-Thiadiazol-5-Yl)-3,4-Dihydro-2H-Benzo[B][1,4]Oxazine-7-Sulfonamide]	6.85	5.92	< 5.00
Cc1ccc(Cl)cc1N1CCOc2cc(S(=O)(=O)Nc3nccs3)ccc21 [Example 178, 4-(5-Chloro-2-Methylphenyl)-N-(Thiazol-2-Yl)-3,4-Dihydro-2H-Benzo[B][1,4]Oxazine-7-Sulfonamide 2,2,2-Trifluoroacetate]	6.89	6.17	5.25
O=S(=O)(Nc1cnccn1)c1ccc2c(c1)OCCN2c1ccc(C(F)(F)F)cc1C1=CCNCC1 [Example 88, N-(Pyrazin-2-Yl)-4-(2-(1,2,3,6-Tetrahydropyridin-4-Yl)-4-(Trifluoromethyl)Phenyl)-3,4-Dihydro-2H-Benzo[B][1,4]Oxazine-7-Sulfonamide]	6.65	6.13	< 5.00
O=S(=O)(Nc1ncns1)c1ccc2c(c1)OCCN2c1ccc(C(F)(F)F)cc1Br [Example 1, 4-(2-Bromo-4-(Trifluoromethyl)Phenyl)-N-(1,2,4-Thiadiazol-5-Yl)-3,4-Dihydro-2H-Benzo[B][1,4]Oxazine-7-Sulfonamide]	7.95	7.23	< 5.00
N#Cc1cc(C(F)(F)F)ccc1N1CCOc2cc(S(=O)(=O)Nc3nccs3)c(Cl)cc21 [Example 212, 6-Chloro-4-(2-Cyano-4-(Trifluoromethyl)Phenyl)-N-(Thiazol-2-Yl)-3,4-Dihydro-2H-Benzo[B][1,4]Oxazine-7-Sulfonamide]	7.67	6.43	6.13
O=S(=O)(Nc1nccs1)c1ccc2c(c1)OCCN2c1ccccc1 [Example 165, 4-phenyl-N-(thiazol-2-yl)-3,4-dihydro-2H-benzo[b][1,4]oxazine-7-sulfonamide]	6.15	5.43	< 5.00
O=S(=O)(Nc1nccs1)c1ccc2c(c1)OCCN2c1ccc(C(F)(F)F)cc1CCO [Example 211, 4-(2-(2-Hydroxyethyl)-4-(Trifluoromethyl)Phenyl)-N-(Thiazol-2-Yl)-3,4-Dihydro-2H-Benzo[B][1,4]Oxazine-7-Sulfonamide]	8.26	6.64	6.33
Cc1cc(C(F)(F)F)ccc1N1CCOc2cc(S(=O)(=O)Nc3nccs3)ccc21 [Example 196, 4-(2-Methyl-4-(Trifluoromethyl)Phenyl)-N-(Thiazol-2-Yl)-3,4-Dihydro-2H-Benzo[B][1,4]Oxazine-7-Sulfonamide]	6.40	6.05	5.24
N#Cc1ccc(N2CCOc3cc(S(=O)(=O)Nc4nccs4)ccc32)cc1 [Example 76, 4-(4-Cyanophenyl)-N-(Thiazol-2-Yl)-3,4-Dihydro-2H-Benzo[B][1,4]Oxazine-7-Sulfonamide 2,2,2-Trifluoroacetate]	6.06	5.03	5.22
O=S(=O)(Nc1nccs1)c1ccc2c(c1)OCCN2c1ccc(C(F)(F)F)cc1CO [Example 206, 4-(2-(hydroxymethyl)-4-(trifluoromethyl)phenyl)-N-(thiazol-2-yl)-3,4-dihydro-2H-benzo[b][1,4]oxazine-7-sulfonamide]	7.50	6.76	5.94
O=S(=O)(Nc1nccs1)c1ccc2c(c1)OCCN2c1cc(Cl)ccc1Cl [Example 180, 4-(2,5-Dichlorophenyl)-N-(Thiazol-2-Yl)-3,4-Dihydro-2H-Benzo[B][1,4]Oxazine-7-Sulfonamide 2,2,2-Trifluoroacetate]	6.98	6.07	5.16
O=S(=O)(Nc1ccncn1)c1ccc2c(c1)OCCN2c1ccc(C(F)(F)F)cc1Br [Example 47, 4-(2-Bromo-4-(Trifluoromethyl)Phenyl)-N-(Pyrimidin-4-Yl)-3,4-Dihydro-2H-Benzo[B][1,4]Oxazine-7-Sulfonamide]	7.84	6.52	5.10
O=S(=O)(Nc1cscn1)c1ccc2c(c1)OCCN2c1ccc(C(F)(F)F)cc1Br [Example 61, 4-(2-Bromo-4-(Trifluoromethyl)Phenyl)-N-(Thiazol-4-Yl)-3,4-Dihydro-2H-Benzo[B][1,4]Oxazine-7-Sulfonamide]	6.17	5.61	< 5.00
O=S(=O)(Nc1ncns1)c1ccc2c(c1)OCC(c1ccccc1)N2c1ccc(C(F)(F)F)cc1 (stereo not drawn) [Example 34, 3-Phenyl-N-(1,2,4-Thiadiazol-5-Yl)-4-(4-(Trifluoromethyl)Phenyl)-3,4-Dihydro-2H-Benzo[B][1,4]Oxazine-7-Sulfonamide]	5.61	5.46	< 5.00
CC(C)c1ccc(N2CCOc3cc(S(=O)(=O)Nc4nccs4)ccc32)c(C#N)c1 [Example 202, 4-(2-cyano-4-isopropylphenyl)-N-(thiazol-2-yl)-3,4-dihydro-2H-benzo[b][1,4]oxazine-7-sulfonamide]	7.03	6.37	6.16
N#Cc1cc(C(F)(F)F)ccc1N1CCOc2cc(S(=O)(=O)Nc3ccncn3)ccc21 [Example 89, 4-(2-Cyano-4-(Trifluoromethyl)Phenyl)-N-(Pyrimidin-4-Yl)-3,4-Dihydro-2H-Benzo[B][1,4]Oxazine-7-Sulfonamide]	7.55	6.33	5.94
O=S(=O)(Nc1nccs1)c1ccc2c(c1)OCCN2c1cccc(C(F)(F)F)c1 [Example 173, N-(Thiazol-2-Yl)-4-(3-(Trifluoromethyl)Phenyl)-3,4-Dihydro-2H-Benzo[B][1,4]Oxazine-7-Sulfonamide 2,2,2-Trifluoroacetate]	6.63	5.78	< 5.00
COc1ccc(N2CCOc3cc(S(=O)(=O)Nc4nccs4)ccc32)cc1C#N [Example 118, 4-(3-Cyano-4-methoxyphenyl)-N-(thiazol-2-yl)-3,4-dihydro-2H-benzo[b][1,4]oxazine-7-sulfonamide]	6.18	4.74	< 5.00
O=S(=O)(Nc1nccs1)c1ccc2c(c1)OCCN2c1cccc(OC(F)(F)F)c1 [Example 185, N-(Thiazol-2-Yl)-4-(3-(Trifluoromethoxy)Phenyl)-3,4-Dihydro-2H-Benzo[B][1,4]Oxazine-7-Sulfonamide]	6.47	5.58	5.12
